# Experiments:
# Hepatotoxicity [1] = experiment: Literature-mined compound from Fourches et al multi-species drug-induced liver injury (DILI) dataset, effect in rodents; details: rodentia
# Hepatotoxicity [2] = experiment: Literature-mined compound from Fourches et al multi-species drug-induced liver injury (DILI) dataset, effect in non-rodents
# Hepatotoxicity [3] = experiment: Literature-mined compound from Fourches et al multi-species drug-induced liver injury (DILI) dataset, effect in humans; details: human
smiles,measurement,setting,value
CNC(=O)c1cc(Oc2ccc(NC(=O)Nc3ccc(Cl)c(C(F)(F)F)c3)cc2)ccn1.Cc1ccc(S(=O)(=O)O)cc1 [SORAFENIB TOSYLATE],Hepatotoxicity,Hepatotoxicity [1],no drug-induced liver injury reported
same,Hepatotoxicity,Hepatotoxicity [2],no drug-induced liver injury reported
same,Hepatotoxicity,Hepatotoxicity [3],drug-induced liver injury reported
OC[C@@H](O)[C@@H](O)[C@H](O)[C@@H](O)CO [SORBITOL],Hepatotoxicity,Hepatotoxicity [1],drug-induced liver injury reported
same,Hepatotoxicity,Hepatotoxicity [2],no drug-induced liver injury reported
same,Hepatotoxicity,Hepatotoxicity [3],drug-induced liver injury reported
CC(C)NCC(O)c1ccc(NS(C)(=O)=O)cc1 (stereo unspecified) [SOTALOL],Hepatotoxicity,Hepatotoxicity [1],drug-induced liver injury reported
same,Hepatotoxicity,Hepatotoxicity [2],no drug-induced liver injury reported
same,Hepatotoxicity,Hepatotoxicity [3],no drug-induced liver injury reported
Oc1c2ccccc2c2c3c(cccc13)N=N2 [SP-600125],Hepatotoxicity,Hepatotoxicity [1],drug-induced liver injury reported
same,Hepatotoxicity,Hepatotoxicity [2],no drug-induced liver injury reported
same,Hepatotoxicity,Hepatotoxicity [3],drug-induced liver injury reported
C[C@@H]1CN(c2c(F)c(N)c3c(=O)c(C(=O)O)cn(C4CC4)c3c2F)C[C@H](C)N1 [SPARFLOXACIN],Hepatotoxicity,Hepatotoxicity [1],no drug-induced liver injury reported
same,Hepatotoxicity,Hepatotoxicity [2],no drug-induced liver injury reported
same,Hepatotoxicity,Hepatotoxicity [3],drug-induced liver injury reported
CC(=O)S[C@@H]1CC2=CC(=O)CC[C@]2(C)[C@H]2CC[C@@]3(C)[C@@H](CC[C@@]34CCC(=O)O4)[C@H]12 [SPIRONOLACTONE],Hepatotoxicity,Hepatotoxicity [1],drug-induced liver injury reported
same,Hepatotoxicity,Hepatotoxicity [2],no drug-induced liver injury reported
same,Hepatotoxicity,Hepatotoxicity [3],drug-induced liver injury reported
C[C@]12Cc3c[nH]nc3C[C@@H]1CC[C@@H]1[C@@H]2CC[C@@]2(C)[C@H]1CC[C@]2(C)O [STANOZOLOL],Hepatotoxicity,Hepatotoxicity [1],drug-induced liver injury reported
same,Hepatotoxicity,Hepatotoxicity [2],no drug-induced liver injury reported
same,Hepatotoxicity,Hepatotoxicity [3],drug-induced liver injury reported
Cc1cn([C@H]2C=C[C@@H](CO)O2)c(=O)[nH]c1=O [STAVUDINE],Hepatotoxicity,Hepatotoxicity [1],drug-induced liver injury reported
same,Hepatotoxicity,Hepatotoxicity [2],no drug-induced liver injury reported
same,Hepatotoxicity,Hepatotoxicity [3],drug-induced liver injury reported
[H]/N=C(/N)N[C@H]1[C@H](O)[C@@H](O)[C@H](O[C@@H]2O[C@@H](C)[C@](O)(C=O)[C@H]2O[C@@H]2O[C@@H](CO)[C@H](O)[C@@H](O)[C@@H]2NC)[C@@H](N/C(N)=N\[H])[C@@H]1O [STREPTOMYCIN],Hepatotoxicity,Hepatotoxicity [1]; Liver,drug-induced liver injury reported
same,Hepatotoxicity,Hepatotoxicity [2]; Liver,drug-induced liver injury reported
same,Hepatotoxicity,Hepatotoxicity [3]; Liver,drug-induced liver injury reported
CN(N=O)C(=O)N[C@@H](C=O)[C@@H](O)[C@H](O)[C@H](O)CO [STREPTOZOCIN],Hepatotoxicity,Hepatotoxicity [1],drug-induced liver injury reported
same,Hepatotoxicity,Hepatotoxicity [2],drug-induced liver injury reported
same,Hepatotoxicity,Hepatotoxicity [3],no drug-induced liver injury reported
OC[C@H]1O[C@@](CO)(O[C@H]2O[C@H](CO)[C@@H](O)[C@H](O)[C@H]2O)[C@@H](O)[C@@H]1O [SUCROSE],Hepatotoxicity,Hepatotoxicity [1],drug-induced liver injury reported
same,Hepatotoxicity,Hepatotoxicity [2],drug-induced liver injury reported
same,Hepatotoxicity,Hepatotoxicity [3],no drug-induced liver injury reported
CC1(C)[C@H](C(=O)O)N2C(=O)C[C@H]2S1(=O)=O [SULBACTAM],Hepatotoxicity,Hepatotoxicity [1],no drug-induced liver injury reported
same,Hepatotoxicity,Hepatotoxicity [2],no drug-induced liver injury reported
same,Hepatotoxicity,Hepatotoxicity [3],drug-induced liver injury reported
Nc1ccc(S(=O)(=O)Nc2ncccn2)cc1 [SULFADIAZINE],Hepatotoxicity,Hepatotoxicity [1]; Liver,no drug-induced liver injury reported
same,Hepatotoxicity,Hepatotoxicity [2]; Liver,no drug-induced liver injury reported
same,Hepatotoxicity,Hepatotoxicity [3]; Liver,drug-induced liver injury reported
COc1cc(NS(=O)(=O)c2ccc(N)cc2)nc(OC)n1 [SULFADIMETHOXINE],Hepatotoxicity,Hepatotoxicity [1],no drug-induced liver injury reported
same,Hepatotoxicity,Hepatotoxicity [2],no drug-induced liver injury reported
same,Hepatotoxicity,Hepatotoxicity [3],drug-induced liver injury reported
COc1ncnc(NS(=O)(=O)c2ccc(N)cc2)c1OC [SULFADOXINE],Hepatotoxicity,Hepatotoxicity [1],no drug-induced liver injury reported
same,Hepatotoxicity,Hepatotoxicity [2],drug-induced liver injury reported
same,Hepatotoxicity,Hepatotoxicity [3],no drug-induced liver injury reported
Cc1ccnc(NS(=O)(=O)c2ccc(N)cc2)n1 [SULFAMERAZINE],Hepatotoxicity,Hepatotoxicity [1],drug-induced liver injury reported
same,Hepatotoxicity,Hepatotoxicity [2],no drug-induced liver injury reported
same,Hepatotoxicity,Hepatotoxicity [3],no drug-induced liver injury reported
Cc1cc(C)nc(NS(=O)(=O)c2ccc(N)cc2)n1 [SULFAMETHAZINE],Hepatotoxicity,Hepatotoxicity [1],drug-induced liver injury reported
same,Hepatotoxicity,Hepatotoxicity [2],no drug-induced liver injury reported
same,Hepatotoxicity,Hepatotoxicity [3],drug-induced liver injury reported
Cc1nnc(NS(=O)(=O)c2ccc(N)cc2)s1 [SULFAMETHIZOLE],Hepatotoxicity,Hepatotoxicity [1],no drug-induced liver injury reported
same,Hepatotoxicity,Hepatotoxicity [2],no drug-induced liver injury reported
same,Hepatotoxicity,Hepatotoxicity [3],drug-induced liver injury reported
Cc1cc(NS(=O)(=O)c2ccc(N)cc2)no1 [SULFAMETHOXAZOLE],Hepatotoxicity,Hepatotoxicity [1]; Liver,no drug-induced liver injury reported
same,Hepatotoxicity,Hepatotoxicity [2]; Liver,no drug-induced liver injury reported
same,Hepatotoxicity,Hepatotoxicity [3]; Liver,drug-induced liver injury reported
Nc1ccc(S(N)(=O)=O)cc1 [SULFANILAMIDE],Hepatotoxicity,Hepatotoxicity [1]; Liver,no drug-induced liver injury reported
same,Hepatotoxicity,Hepatotoxicity [2]; Liver,no drug-induced liver injury reported
same,Hepatotoxicity,Hepatotoxicity [3]; Liver,drug-induced liver injury reported
Nc1ccc(S(=O)(=O)Nc2ccnn2-c2ccccc2)cc1 [SULFAPHENAZOLE],Hepatotoxicity,Hepatotoxicity [1],drug-induced liver injury reported
same,Hepatotoxicity,Hepatotoxicity [2],no drug-induced liver injury reported
same,Hepatotoxicity,Hepatotoxicity [3],drug-induced liver injury reported
Nc1ccc(S(=O)(=O)Nc2ccccn2)cc1 [SULFAPYRIDINE],Hepatotoxicity,Hepatotoxicity [1],drug-induced liver injury reported
same,Hepatotoxicity,Hepatotoxicity [2],no drug-induced liver injury reported
same,Hepatotoxicity,Hepatotoxicity [3],no drug-induced liver injury reported
O=C(O)c1cc(/N=N/c2ccc(S(=O)(=O)Nc3ccccn3)cc2)ccc1O [SULFASALAZINE],Hepatotoxicity,Hepatotoxicity [1],drug-induced liver injury reported
same,Hepatotoxicity,Hepatotoxicity [2],no drug-induced liver injury reported
same,Hepatotoxicity,Hepatotoxicity [3],drug-induced liver injury reported
O=C1C(CC[S+]([O-])c2ccccc2)C(=O)N(c2ccccc2)N1c1ccccc1 (stereo unspecified) [SULFINPYRAZONE],Hepatotoxicity,Hepatotoxicity [1],no drug-induced liver injury reported
same,Hepatotoxicity,Hepatotoxicity [2],no drug-induced liver injury reported
same,Hepatotoxicity,Hepatotoxicity [3],drug-induced liver injury reported
CCCCCCCCNC(C)C(O)c1ccc(SC(C)C)cc1 (stereo unspecified) [SULOCTIDIL],Hepatotoxicity,Hepatotoxicity [1],no drug-induced liver injury reported
same,Hepatotoxicity,Hepatotoxicity [2],no drug-induced liver injury reported
same,Hepatotoxicity,Hepatotoxicity [3],drug-induced liver injury reported
CCN1CCCC1CNC(=O)c1cc(S(N)(=O)=O)ccc1OC (stereo unspecified) [SULPIRIDE],Hepatotoxicity,Hepatotoxicity [1],no drug-induced liver injury reported
same,Hepatotoxicity,Hepatotoxicity [2],drug-induced liver injury reported
same,Hepatotoxicity,Hepatotoxicity [3],drug-induced liver injury reported
CC(C(=O)O)c1ccc(C(=O)c2cccs2)cc1 (stereo unspecified) [SUPROFEN],Hepatotoxicity,Hepatotoxicity [1],no drug-induced liver injury reported
same,Hepatotoxicity,Hepatotoxicity [2],no drug-induced liver injury reported
same,Hepatotoxicity,Hepatotoxicity [3],drug-induced liver injury reported
